According to the supplement of paper PMC11061612:

What was measured:
Assay in all cases: combination Emax (second highest fraction inhibited in the dose matrix, 72 h); higher = more inhibition; extreme values may be limits of the assay
[1] = system: NCCIT (Other Solid Carcinomas)
In short: (§1)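 Cell lines grown in DMEM/F12 or RPMI with 10% FBS were plated in 1536-well plates and held 24 hours at 37°C, 5% CO2 before 72 hours of exposure to two-drug dose matrices, with DMSO typically at 0.2%. CellTiter-Glo 2.0 luminescence gave viability, which was converted to inhibition. Vehicle wells were set to 0 and blank wells to 1. Combination Emax is the second-highest inhibition in the matrix, and Bliss excess is the observed combination effect minus the expected EA + EB − EA·EB, where EA and EB are the single-agent effects.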

[2] = system: MOLM-13 (Acute Myeloid Leukemia)
In short: as §1

[3] = system: MOG-G-CCM (Low Grade Glioma)
In short: as §1

[4] = system: DMS-114 (Small Cell Lung Carcinoma)
In short: as §1

SJSA-1 (Osteosarcoma) = system: SJSA-1 (Osteosarcoma)
In short: as §1

[5] = system: PC-3 (Prostate Carcinoma)
In short: as §1

G-361 (Melanoma) = system: G-361 (Melanoma)
In short: as §1

[6] = system: T-T (Esophageal Squamous Cell Carcinoma)
In short: as §1

[7] = system: CHSA8926 (Chondrosarcoma)
In short: as §1

[8] = system: SUP-B15 (B-Lymphoblastic Leukemia)
In short: as §1

[9] = system: NCI-H929 (Plasma Cell Myeloma)
In short: as §1

[10] = system: ESO51 (Esophageal Adenocarcinoma)
In short: as §1

[11] = system: NCI-H661 (Non-Small Cell Lung Carcinoma)
In short: as §1

[12] = system: DAN-G (Pancreatic Carcinoma)
In short: as §1

[13] = system: HCC1187 (Breast Carcinoma)
In short: as §1

[14] = system: RPMI-8226 (Plasma Cell Myeloma)
In short: as §1

[15] = system: H9 (T-Cell Non-Hodgkin's Lymphoma)
In short: as §1

[16] = system: CW-2 (Colorectal Carcinoma)
In short: as §1

[17] = system: SNU-398 (Hepatocellular Carcinoma)
In short: as §1

[18] = system: HCC1419 (Breast Carcinoma)
In short: as §1

| Structure (SMILES) | combination Emax [1] | combination Emax [2] | combination Emax [3] | combination Emax [4] | combination Emax (SJSA-1 (Osteosarcoma)) | combination Emax [5] | combination Emax (G-361 (Melanoma)) | combination Emax [6] | combination Emax [7] | combination Emax [8] | combination Emax [9] | combination Emax [10] | combination Emax [11] | combination Emax [12] | combination Emax [13] | combination Emax [14] | combination Emax [15] | combination Emax [16] | combination Emax [17] | combination Emax [18] |
| --- | --- | --- | --- | --- | --- | --- | --- | --- | --- | --- | --- | --- | --- | --- | --- | --- | --- | --- | --- | --- |
| COc1nnc2ccc(N3CCC(c4ccc(OCCN5CCN(C)C(=O)[C@H]5C)cc4)CC3)nn12 [AZD5153] + Cc1c2c(nn1C)CSCc1cc(n(C)n1)CSc1cc(c3ccccc3c1)OCCCc1c(C(=O)O)n(C)c3c-2c(Cl)ccc13 [AZD5991] (first compound max 1 µM, 7x7, partner max 1 µM) | 0.998 | 1 | 0.652 | 1 | 0.553 | 0.376 | 0.997 | 0.958 | 0.651 | 1 | 1 | 0.708 | 0.891 | 0.337 | 1 | 1 | 1 | 0.527 | 1 | 0.567 |
| Cn1cnc2c(F)c(Nc3ccc(Br)cc3Cl)c(C(=O)NOCCO)cc21 [Selumetinib] + C[C@@H]1COCCN1C2=NC(=NC(=C2)C3(CC3)[S@](=N)(=O)C)C4=C5C=CNC5=NC=C4 [AZD6738] (first compound max 10 µM, 7x7, partner max 10 µM) | 0.649 | 1 | 0.502 | 0.34 | 0.559 | 0.39 | 0.848 | 0.292 | 0.404 | 0.986 | 0.882 | 0.857 | 0.396 | 0.675 | 0.636 | 0.871 | 1 | 0.501 | 0.742 | 0.174 |
| Cc1c2c(nn1C)CSCc1cc(n(C)n1)CSc1cc(c3ccccc3c1)OCCCc1c(C(=O)O)n(C)c3c-2c(Cl)ccc13 [AZD5991] + CN(C)CCCOc1ccc(-c2ccc3ncc4c(c3c2)n(C2CCOCC2)c(=O)n4C)cn1 [AZD0156] (first compound max 1 µM, 7x7, partner max 1 µM) | 0.641 | 1 | 0.249 | 0.548 | 0.322 | 0.282 | 0.956 | 0.901 | 0.497 | 1 | 1 | 0.205 | 0.505 | 0.48 | 0.988 | 0.963 | 0.834 | 0.154 | 1 | 0.385 |
| CN(C)CCCOc1ccc(-c2ccc3ncc4c(c3c2)n(C2CCOCC2)c(=O)n4C)cn1 [AZD0156] + C[C@@H]1COCCN1C2=NC(=NC(=C2)C3(CC3)[S@](=N)(=O)C)C4=C5C=CNC5=NC=C4 [AZD6738] (first compound max 1 µM, 7x7, partner max 10 µM) | 0.656 | 0.997 | 0.413 | 0.515 | 0.325 | 0.484 | 0.628 | 0.659 | 0.336 | 0.879 | 0.778 | 0.773 | 0.486 | 0.696 | 0.472 | 0.994 | 0.972 | 0.543 | 0.462 | 0.159 |
| COc1nnc2ccc(N3CCC(c4ccc(OCCN5CCN(C)C(=O)[C@H]5C)cc4)CC3)nn12 [AZD5153] + CC1(C)CCC(CN2CCN(c3ccc(C(=O)NS(=O)(=O)c4ccc(NCC5CCOCC5)c([N+](=O)[O-])c4)c(Oc4cnc5[nH]ccc5c4)c3)CC2)=C(c2ccc(Cl)cc2)C1 [Venetoclax] (first compound max 1 µM, 7x7, partner max 1 µM) | 0.807 | 1 | 0.54 | 0.607 | 0.546 | 0.366 | 0.617 | 0.55 | 0.509 | 1 | 0.951 | 0.581 | 0.264 | 0.268 | 0.24 | 0.8 | 1 | 0.513 | 0.447 | 0.389 |
| Cn1cnc2c(F)c(Nc3ccc(Br)cc3Cl)c(C(=O)NOCCO)cc21 [Selumetinib] + C=CCn1c(=O)c2cnc(Nc3ccc(N4CCN(C)CC4)cc3)nc2n1-c1cccc(C(C)(C)O)n1 [AZD1775] (first compound max 10 µM, partner max 1 µM) | 0.773 | 1 | 0.357 | 0.192 | 0.449 | 0.165 | 0.826 | 0.301 | 0.556 | 0.915 | 0.684 | 0.681 | 0.553 | 0.811 | 0.682 | 0.438 | 1 | 0.464 | 0.784 | 0.0435 |
| COc1nnc2ccc(N3CCC(c4ccc(OCCN5CCN(C)C(=O)[C@H]5C)cc4)CC3)nn12 [AZD5153] + C=CCn1c(=O)c2cnc(Nc3ccc(N4CCN(C)CC4)cc3)nc2n1-c1cccc(C(C)(C)O)n1 [AZD1775] (first compound max 1 µM, partner max 1 µM) | 0.939 | 1 | 0.615 | 0.629 | 0.589 | 0.447 | 0.734 | 0.615 | 0.735 | 0.962 | 0.908 | 0.723 | 0.731 | 0.681 | 0.792 | 0.845 | 1 | 0.605 | 0.818 | 0.346 |
| CC1(C)CCC(CN2CCN(c3ccc(C(=O)NS(=O)(=O)c4ccc(NCC5CCOCC5)c([N+](=O)[O-])c4)c(Oc4cnc5[nH]ccc5c4)c3)CC2)=C(c2ccc(Cl)cc2)C1 [Venetoclax] + C1CN(CCC1(C(=O)N[C@@H](CCO)C2=CC=C(C=C2)Cl)N)C3=NC=NC4=C3C=CN4 [Capivasertib] (first compound max 1 µM, 7x7, partner max 3 µM) | 0.398 | 1 | 0.348 | 0.24 | 0.31 | 0.365 | 0.159 | 0.221 | 0.331 | 1 | 0.997 | 0.11 | 0.192 | 0.195 | 0.183 | 0.172 | 0.541 | 0.163 | 0.217 | 0.53 |
| C=CCn1c(=O)c2cnc(Nc3ccc(N4CCN(C)CC4)cc3)nc2n1-c1cccc(C(C)(C)O)n1 [AZD1775] + O=C(c1cc(Cc2n[nH]c(=O)c3ccccc23)ccc1F)N1CCN(C(=O)C2CC2)CC1 [Olaparib] (first compound max 1 µM, partner max 10 µM) | 0.759 | 0.991 | 0.456 | 0.363 | 0.253 | 0.207 | 0.564 | 0.455 | 0.455 | 0.973 | 0.473 | 0.455 | 0.512 | 0.646 | 0.423 | 0.502 | 0.868 | 0.392 | 0.5 | 0.118 |
| CC1(C)CCC(CN2CCN(c3ccc(C(=O)NS(=O)(=O)c4ccc(NCC5CCOCC5)c([N+](=O)[O-])c4)c(Oc4cnc5[nH]ccc5c4)c3)CC2)=C(c2ccc(Cl)cc2)C1 [Venetoclax] + Cc1cc2ncnn2cc1Nc1ncc2c(n1)n(C1CCOCC1)c(=O)n2C [AZD7648] (first compound max 1 µM, 7x7, partner max 10 µM) | 0.289 | 0.956 | 0.303 | 0.315 | 0.291 | 0.263 | 0.152 | 0.172 | 0.359 | 1 | 0.812 | 0.131 | 0.16 | 0.363 | 0.142 | 0.438 | 0.396 | 0.163 | 0.29 | 0.383 |
| CC1(C)CCC(CN2CCN(c3ccc(C(=O)NS(=O)(=O)c4ccc(NCC5CCOCC5)c([N+](=O)[O-])c4)c(Oc4cnc5[nH]ccc5c4)c3)CC2)=C(c2ccc(Cl)cc2)C1 [Venetoclax] + COc1cc(Nc2ncc3c(n2)-c2ccc(Cl)cc2C(c2c(F)cccc2OC)=NC3)ccc1C(=O)O [Alisertib] (first compound max 1 µM, 7x7, partner max 10 µM) | 0.51 | 1 | 0.806 | 0.555 | 0.33 | 0.321 | 0.415 | 0.487 | 0.531 | 1 | 0.662 | 0.213 | 0.26 | 0.425 | 0.744 | 0.685 | 0.802 | 0.16 | 0.498 | 0.15 |
| Cc1c2c(nn1C)CSCc1cc(n(C)n1)CSc1cc(c3ccccc3c1)OCCCc1c(C(=O)O)n(C)c3c-2c(Cl)ccc13 [AZD5991] + C[C@@H]1COCCN1C2=NC(=NC(=C2)C3(CC3)[S@](=N)(=O)C)C4=C5C=CNC5=NC=C4 [AZD6738] (first compound max 1 µM, 7x7, partner max 10 µM) | 0.864 | 1 | 0.518 | 0.815 | 0.47 | 0.482 | 1 | 0.932 | 0.643 | 1 | 1 | 0.747 | 0.829 | 0.737 | 1 | 1 | 1 | 0.443 | 1 | 0.275 |
